# Values of other authors, collected in patent US20080292666A1, “Preparation for Preventing or Treating Calcium Deficiency Conditions In Mammals” (priority 2005, published 2008).
# Key:
# [1] = for effect of oral drenches on blood Ca-concentrations: aqueous solutions or slurries, cows
# [2] = test system: parturient paresis in dairy cows; conditions: 120 g calcium as calcium propionate cylinders vs 216 g as oily calcium chloride solution
# [3] = 75 g of calcium as paste, oral
Structure (SMILES),rise of plasma Ca-concentrations after oral CaCl2 compared with i.v. ([1]; 50 g of Ca as CaCl2),effect of oral drenches on blood Ca-concentrations [1],"total amount administered in 24 h not to be exceeded to avoid severe metabolic acidosis ([1]; oral, 24 h (120 g of Ca)) [g]",effectiveness in the prevention of milk fever [2],persistence of the increase in plasma calcium [3],rapidity of plasma calcium increase [3]
[Ca+2].[Cl-].[Cl-] [calcium chloride],raised plasma Ca-concentrations to the same extent as 4° g. of Ca as CaCl2 given i.v.,increased blood Ca-concentrations more quickly than did Ca-propionate,≤ 288,,,
CCC(=O)[O-].CCC(=O)[O-].[Ca+2] [calcium propionate],,effects lasted longer,,as effective in the prevention of milk fever as was treatment with calcium chloride,sustained for a longer period,did not increase plasma calcium as rapidly as 75° g. calcium as CaCl2
